Reference: patent US20130096105A1, “ArylSulfonamide Based Matrix Metalloprotease Inhibitors” (NOVARTIS AG, priority 2008, published 2013)

What was measured:
[1] = target: Collagenase-3 (MMP-13) (Homo sapiens, UniProt P45452); test: Collagenase-3 (MMP-13) inhibitory activity, fluorogenic peptide substrate cleavage; format: biochemical; details: read-out: MMP13 IC50
Description: (§1) Gelatinase (MMP-2) inhibitory activities can be determined as follows: Stock solutions of substrate (MCA-Lys-Pro-Leu-Gly-Leu-Dpa-Ala-Arg-NH2) are prepared in DMSO at a concentration of 1.4 mM. Stock solutions of inhibitors (0.03 μM-3 mM) are also prepared in DMSO. The inhibitors are diluted into the assay solutions, and the controls use an equal volume of DMSO so that the final DMSO concentration from the inhibitor and substrate dilutions in all assays is 1.0%. Assays are performed in an assay buffer (100 mM sodium chloride, 10 μM ZnCl. Sub 2, 10 mM CaCl2, 100 mM Tris-Cl pH7.5, 0.05% Brij-35), containing 1.0% DMSO from the substrate and inhibitor additions. The substrate concentration used in the assays is 5 μM. The assays are carried out at 20-25° C. The fluorescence changes, as a result of substrate cleavage, are monitored using an excitation wavelength of 325 nm and an emission wavelength of 405 nm. The reaction mixtures are added in duplicate into appropriate wells of a 384-well assay plate. The reaction mixtures are preincubated with the inhibitors for 60 minutes The reactions are started by the addition of MMP substrate, and the fluorescence intensity changes are measured after 60 minutes The apparent enzyme activity in the presence of an inhibitor is then compared with that in the absence of any inhibitor to determine the inhibition effect of the inhibitor. These techniques are within the knowledge of one skilled in the art. The inhibition results are expressed as the inhibitor concentrations required to effect 50% inhibition (IC50) of the enzyme activity, as compared with the control (non-inhibited) reactions.
Collagenase-3 (MMP-13) inhibitory activity is determined as described above. Recombinant pro-collagenase-3 is activated with 1 mM APMA, and stored in the assay buffer after extensive dialysis in the assay buffer.

[2] = target: T1, Gelatinase (MMP-2) (Homo sapiens, UniProt P08253); test: Gelatinase (MMP-2) inhibitory activity, fluorogenic peptide substrate cleavage; format: biochemical; details: read-out: MMP02 IC50
T1 sequence (P08253 110-660): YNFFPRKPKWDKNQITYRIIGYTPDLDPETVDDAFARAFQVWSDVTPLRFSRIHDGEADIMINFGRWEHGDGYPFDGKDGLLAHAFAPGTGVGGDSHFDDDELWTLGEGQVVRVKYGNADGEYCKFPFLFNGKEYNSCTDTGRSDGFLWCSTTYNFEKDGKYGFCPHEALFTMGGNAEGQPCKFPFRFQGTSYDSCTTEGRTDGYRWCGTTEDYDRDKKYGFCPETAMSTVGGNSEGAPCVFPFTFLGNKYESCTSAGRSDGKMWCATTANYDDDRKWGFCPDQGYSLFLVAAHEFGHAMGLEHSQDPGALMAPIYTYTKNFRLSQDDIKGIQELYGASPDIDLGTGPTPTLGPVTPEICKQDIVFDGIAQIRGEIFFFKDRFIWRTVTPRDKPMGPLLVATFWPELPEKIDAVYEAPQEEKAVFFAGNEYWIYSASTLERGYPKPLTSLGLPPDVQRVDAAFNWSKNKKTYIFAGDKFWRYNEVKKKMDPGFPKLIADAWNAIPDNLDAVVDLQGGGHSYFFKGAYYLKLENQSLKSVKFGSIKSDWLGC
Description: as §1

## 2-Chloro-5-(3-hydroxy-4-methoxy-benzoyl)-benzenesulfonamide [Example 56]
[1]
  IC50: 26.7 µM
[2]
  IC50: > 30 µM

## 2-Chloro-5-(4-cyclopropyl-benzoyl)-benzenesulfonamide [Example 27]
[1]
  IC50: 9.64 µM
[2]
  IC50: 7.46 µM

## 2-Chloro-5-(4-pyridin-4-yl-benzoyl)-benzenesulfonamide [Example 42]
[1]
  IC50: 1.5 µM
[2]
  IC50: 0.51 µM

## 2-Chloro-5-(4-thiophen-2-yl-benzoyl)-benzenesulfonamide [Example 39]
[1]
  IC50: 9.06 µM
[2]
  IC50: 13.3 µM

## COc1ccc(C(=O)c2ccc(F)c(S(N)(=O)=O)c2)cc1 [Example 2, 2-Fluoro-5-(4-methoxy-benzoyl)-benzenesulfonamide]
[1]
  IC50: 1.59 µM
[2]
  IC50: 2.41 µM

## COc1ccc(C(=O)c2cc(F)c(F)c(S(N)(=O)=O)c2)cc1 [Example 4, 2,3-Difluoro-5-(4-methoxy-benzoyl)-benzenesulfonamide]
[1]
  IC50: 5.73 µM
[2]
  IC50: 4.68 µM

## COc1ccc(C(=O)c2ccc([N+](=O)[O-])c(S(N)(=O)=O)c2)cc1 [Example 5, 5-(4-Methoxy-benzoyl)-2-nitro-benzenesulfonamide]
[1]
  IC50: 1.39 µM
[2]
  IC50: 1.06 µM

## COc1ccc(C(=O)c2ccc(C)c(S(N)(=O)=O)c2)cc1 [Example 6, 5-(4-Methoxy-benzoyl)-2-methyl-benzenesulfonamide]
[1]
  IC50: 4.51 µM
[2]
  IC50: 2.78 µM

## COc1ccc(C(=O)c2ccc(SC)c(S(N)(=O)=O)c2)cc1 [Example 7, 5-(4-Methoxy-benzoyl)-2-methylsulfanyl-benzenesulfonamide]
[1]
  IC50: 3.72 µM
[2]
  IC50: 2.36 µM

## COc1ccc(C(=O)c2ccc([S+](C)[O-])c(S(N)(=O)=O)c2)cc1 (stereo not drawn) [Example 8, 2-Methanesulfinyl-5-(4-methoxy-benzoyl)-benzenesulfonamide]
[1]
  IC50: 10.7 µM
[2]
  IC50: 4.48 µM

## COc1ccc(C(=O)c2ccc(S(C)(=O)=O)c(S(N)(=O)=O)c2)cc1 [Example 9, 2-Methanesulfonyl-5-(4-methoxy-benzoyl)-benzenesulfonamide]
[1]
  IC50: 11.3 µM
[2]
  IC50: 2.93 µM

## Cc1cc(-c2c[nH]c3cc(C(=O)c4cccc(S(N)(=O)=O)c4)ccc23)ccn1 [Example 10, 3-[3-(2-Methyl-pyridin-4-yl)-1H-indole-6-carbonyl]-benzenesulfonamide]
[1]
  IC50: 0.03 µM
[2]
  IC50: 3.4 µM

## COCCCc1cc(-c2c[nH]c3cc(C(=O)c4cccc(S(N)(=O)=O)c4)ccc23)ccn1 [Example 11, 3-{3-[2-(3-Methoxy-propyl)-pyridin-4-yl]-1H-indole-6-carbonyl}-benzenesulfonamide]
[1]
  IC50: 0.075 µM
[2]
  IC50: 3.95 µM

## COc1ccc(C(=O)c2ccc(Cl)c(S(=O)(=O)NCCc3ccccc3)c2)cc1 [Example 12, 2-Chloro-5-(4-methoxy-benzoyl)-N-phenethyl-benzenesulfonamide]
[1]
  IC50: 3.04 µM
[2]
  IC50: 9.13 µM

## COc1ccc(C(=O)c2ccc(Cl)c(S(=O)(=O)NCCc3ccc(F)cc3)c2)cc1 [Example 13, 2-Chloro-N-[2-(4-fluoro-phenyl)-ethyl]-5(4-methoxy-benzoyl)-benzenesulfonamide]
[1]
  IC50: 6.9 µM
[2]
  IC50: 8.8 µM

## NS(=O)(=O)c1cccc(C(=O)c2ccc3c(-c4ccnc(CCCN5CCOCC5)c4)c[nH]c3c2)c1 [Example 14, 3-{3-[2-(3-Morpholin-4-yl-propyl)-pyridin-4-yl]-1H-indole-6-carbonyl}-benzenesulfonamide]
[1]
  IC50: 0.01 µM
[2]
  IC50: 0.8 µM

## NS(=O)(=O)c1cc(C(=O)c2ccc(O)cc2)ccc1Cl [Example 15, 2-Chloro-5-(4-hydroxy-benzoyl)-benzenesulfonamide]
[1]
  IC50: 10 µM
[2]
  IC50: 5.16 µM

## CC(C)COc1ccc(C(=O)c2ccc(Cl)c(S(N)(=O)=O)c2)cc1 [Example 17, 2-Chloro-5-(4-isobutoxy-benzoyl)-benzenesulfonamide]
[1]
  IC50: 3.71 µM
[2]
  IC50: 2.3 µM

## CC(C)CCOc1ccc(C(=O)c2ccc(Cl)c(S(N)(=O)=O)c2)cc1 [Example 18, 2-Chloro-5-[4-(3-methyl-butoxy)-benzoyl]-benzenesulfonamide]
[1]
  IC50: 0.6 µM
[2]
  IC50: 0.7 µM

## NS(=O)(=O)c1cc(C(=O)c2ccc(OCCCc3ccccc3)cc2)ccc1Cl [Example 19, 2-Chloro-5-[4-(3-phenyl-propoxy)-benzoyl]-benzenesulfonamide]
[1]
  IC50: 1.22 µM
[2]
  IC50: 1.58 µM

## CCCCCOc1ccc(C(=O)c2ccc(Cl)c(S(N)(=O)=O)c2)cc1 [Example 20, 2-Chloro-5-(4-pentyloxy-benzoyl)-benzenesulfonamide]
[1]
  IC50: 13.6 µM
[2]
  IC50: 11 µM

## CCCCCCOc1ccc(C(=O)c2ccc(Cl)c(S(N)(=O)=O)c2)cc1 [Example 21, 2-Chloro-5-(4-hexyloxy-benzoyl)-benzenesulfonamide]
[1]
  IC50: 0.86 µM
[2]
  IC50: 4.73 µM

## NS(=O)(=O)c1cc(C(=O)c2ccc(Br)cc2)ccc1Cl [Example 22, 5-(4-Bromo-benzoyl)-2-chloro-benzenesulfonamide]
[1]
  IC50: 2.05 µM
[2]
  IC50: 14 µM

## NS(=O)(=O)c1cc(C(=O)c2ccc(Br)cc2)ccc1Cl [Example 23, 5-(4-Bromo-benzoyl)-2-chloro-benzenesulfonamide]
[1]
  IC50: 0.95 µM
[2]
  IC50: 4.15 µM

## Cc1cccc(C(=O)c2ccc(Cl)c(S(N)(=O)=O)c2)c1 [Example 24, 2-Chloro-5-(3-methyl-benzoyl)-benzenesulfonamide]
[1]
  IC50: 2.1 µM
[2]
  IC50: 9.16 µM

## NS(=O)(=O)c1cc(C(=O)c2ccc(OC(F)(F)F)cc2)ccc1Cl [Example 25, 2-Chloro-5-(4-trifluoromethoxy-benzoyl)-benzenesulfonamide]
[1]
  IC50: 5.3 µM
[2]
  IC50: 2.17 µM

## CC(C)(C)c1ccc(C(=O)c2ccc(Cl)c(S(N)(=O)=O)c2)cc1 [Example 26, 5-(4-tert-Butyl-benzoyl)-2-chloro-benzenesulfonamide]
[1]
  IC50: 10.5 µM
[2]
  IC50: 17.2 µM

## NS(=O)(=O)c1cc(C(=O)c2ccc(C3CCCC3)cc2)ccc1Cl [Example 28, 2-Chloro-5-(4-cyclopentyl-benzoyl)-benzenesulfonamide]
[1]
  IC50: 4.49 µM
[2]
  IC50: 4.26 µM

## NS(=O)(=O)c1cc(C(=O)c2ccc(C3CCCCC3)cc2)ccc1Cl [Example 29, 2-Chloro-5-(4-cyclohexyl-benzoyl)-benzenesulfonamide]
[1]
  IC50: 11.3 µM
[2]
  IC50: 13.3 µM

## C[Si](C)(C)C#Cc1ccc(C(=O)c2ccc(Cl)c(S(N)(=O)=O)c2)cc1 [Example 30, 2-Chloro-5-(4-trimethyl-silanylethynyl-benzoyl)-benzenesulfonamide]
[1]
  IC50: 1.69 µM
[2]
  IC50: 1.23 µM

## NS(=O)(=O)c1cc(C(=O)c2ccc(C#Cc3ccccc3)cc2)ccc1Cl [Example 32, 2-Chloro-5-(4-phenylethynyl-benzoyl)-benzenesulfonamide]
[1]
  IC50: 10 µM
[2]
  IC50: 8.3 µM

## CCCNC(=O)c1ccc(C(=O)c2ccc(Cl)c(S(N)(=O)=O)c2)cc1 [Example 33, 4-(4-Chloro-3-sulfamoyl-benzoyl)-N-propyl-benzamide]
[1]
  IC50: 2.59 µM
[2]
  IC50: > 30 µM

## NS(=O)(=O)c1cc(C(=O)c2ccc(C(=O)Nc3ccccc3)cc2)ccc1Cl [Example 34, 4-(4-Chloro-3-sulfamoyl-benzoyl)-N-phenyl-benzamide]
[1]
  IC50: 4.71 µM
[2]
  IC50: 2.51 µM

## CCc1nn(Cc2ccccc2)c2cc(C(=O)c3ccc(Cl)c(S(N)(=O)=O)c3)ccc12 [Example 111, 5-(1-Benzyl-3-ethyl-1H-indazole-6-carbonyl)-2-chloro-benzenesulfonamide]
[2]
  IC50: > 30 µM

## NS(=O)(=O)c1cc(C(=O)c2ccc3c(CCC4CCCC4)n[nH]c3c2)ccc1Cl [Example 112, 2-Chloro-5-[3-(2-cyclopentyl-ethyl)-1H-indazole-6-carbonyl]-benzenesulfonamide]
[1]
  IC50: 0.129 µM

## NS(=O)(=O)c1cc(C(=O)c2ccc3c(-c4ccsc4)c[nH]c3c2)ccc1Cl [Example 127, 2-Chloro-5-(3-thiophen-3-yl-1H-indole-6-carbonyl)-benzenesulfonamide]
[1]
  IC50: 1.6 µM
